Laboratory results published in patent publication US11820782B2, “Salt forms of amino pyrazine purine based selective kinase inhibitor” (FTG BIO LLC, priority 2018, dated 2023).
≈ marks a conversion by molar mass, not a printed value.

Key:
[1] = Equilibrium solubility in pH 6.8 0.01M phosphate buffer by HPLC; type: physicochemical; conditions: pH6.8 0.01M potassium dihydrogen phosphate buffer
[2] = Microsomal stability, PHLM; type: in vitro ADME; conditions: pooled human liver microsomes
Procedure: (§1) All in vitro experiments like protein binding, microsomal stability, cell cytotoxicity were performed as per study protocols of respective experiments.

[3] = pH vs solubility study (RP-HPLC); type: physicochemical; conditions: listed as Esylate salt
Procedure: In 2 mL volume of buffers (ranging from pH 1.2 to 7.4) and purified water, compound (either free base or esylate or oxalate) was added with increments until the compound doesn't dissolve further in the medium and compound remains undissolved or excess in the solution. The samples were kept for overnight at ambient room temperature to saturate/equilibrate. The dispersions were filtered through 0.45 μm PVDF or nylon membrane filters and the filtrates were analysed using RP-HPLC for determination of solubility of compounds in various buffers and purified water.

Human Plasma = assay: Plasma protein binding, human; type: in vitro ADME
Procedure: as §1

[4] = test system: MDA-MB-231 (breast cancer); assay: Anti-proliferative effect, MDA-MB-231; type: cell-based; conditions: Homo sapiens
Procedure: as §1

[5] = Intravenous and per oral pharmacokinetics in male Balb/c mice; type: in vivo; conditions: male Balb/c mice
Procedure: The husbandry conditions were maintained as described in animal facility SOPs during the study period. Animals procured were quarantined for 7 days followed by acclimatization for 5 days. The study was carried out for two days. Male Balb/c mice of age 10-12 weeks (18-25 g) and male Sprague Dawley rats 8-10 weeks (220-280 g) were used. The food was with held for a period of 4-12 hr prior to dosing and returned to all animals 4h post dosing and water supplied ad libitum. The doses of FT1518 were as follows: Mice: 10 mg/kg intravenous (i.v) and 50 mg/kg oral (p.o); rat—5 mg/kg intravenous (i.v) and 10 mg/kg oral (p.o). The formulation used in i.v and p.o studies were 10% dimethylsulfoxide (DMSO)+30% polyethyleneglycol 400 (PEG400)+60% water and 0.5% methylcellulose (MC)+0.1% tween 80. Blood was collected at the predetermined time points in mice (cardiac puncture) and Jugular vein (rats) over a period of 24h in eppendorf tubes containing K2EDTA as anticoagulant. The plasma was isolated from the blood and stored at −80° C. until bioanalysis. Species: BALB/C mice Gender: Male Dose: IV (10 mg/kg), Single dose • PO (50 mg/kg), single dose Formulation: • IV—DMSO: PEG400:Water (10:30:60 v/v) • PO— 0.5% methylcellulose and 0.1% Tween 80 in water Sampling Time Points: • IV: 5 min, 30 min, 1 h, 2, 4, 8 and 24 h post dose • PO: 10 min, 30 min, 1 h, 2, 4, 8 and 24 h post dose. PK analysis: Phoenix software (Pharsight product). Noncompartmental Analysis (NCA) was used to estimate the PK parameters. FIG. 56 depicts a pharmacokinetic profile of FT-1518 base in mice. Table 31 summarizes PK parameters used in a pharmacokinetic profile with intravenous dose in mice and Table 32 summarizes PK parameters used in a pharmacokinetic profile with per oral dose in mice.

Mouse plasma = assay: Plasma protein binding, mouse; type: in vitro ADME
Procedure: as §1

[6] = Microsomal stability, RLM; type: in vitro ADME; conditions: rat liver microsomes
Procedure: as §1

[7] = test system: U-87 (giloblastoma, epithelial); assay: Anti-proliferative effect, U-87; type: cell-based
Procedure: as §1

[8] = Qualitative (kinetic/visual) solubility in solvents/media; type: physicochemical
Procedure: 2 mg quantity of API was taken in glass vial and small portions of solvent was added with vortexing till the clear solution is obtained (at room temperature or heating up to 50-60° C.).
Weighed quantity of API was taken in glass vial and small portions of solvent was added with vortexing till the clear solution is obtained (at room temperature or heating up to 50-60° C.).

[9] = male, Balb/c, mouse, plasma, po, 50 mg/kg, PO dose (50 mg/kg), single dose

Question: Which “Solubility in pH 6.8 buffer” value [1] does the source give for CCC(CC)n1cnc2c(-c3cnc(N)cn3)nc(N3CC4CCC(C3)O4)nc21 [FT-1518-Esylate] here?
Answer: Its value is 77.98 mg/mL.

Question: What about the half-life at 3 μM ([2]; 3 μM (n = 3), read-out: Invitro T1/2, PHLM) of the same compound?
Answer: The half-life at 3 μM was over 1 h.

Question: And the “stability in PHLM” value [2]?
Answer: Its value is “✓ FT1518, FT 1518-Esylate and FT1518-Oxalate was highly stable in PHLM and RLM”.

Question: What about the Solubility ([3]; Water, overnight, ambient room temperature) of the same compound?
Answer: The Solubility was over 539.39 mg/mL.

Question: And the Solubility ([3]; pH 1.2 HCl)?
Answer: Its Solubility is over 587.07 mg/mL.

Question: What about the Solubility ([3]; pH 3.0 Citrate buffer) of the same compound?
Answer: The Solubility was over 76.38 mg/mL.

Question: And the Solubility ([3]; pH 4.0 Acetate buffer)?
Answer: Its Solubility is 53.25 mg/mL.

Question: What about the Solubility ([3]; pH 5.0 Acetate buffer) of the same compound?
Answer: The Solubility was 0.84 mg/mL.

Question: What about the Solubility ([3]; pH 6.8 Phosphate buffer) of the same compound?
Answer: The Solubility was 79.08 mg/mL.

Question: What about the Solubility ([3]; pH 7.4 Phosphate buffer) of the same compound?
Answer: The Solubility was 40.8 mg/mL.

Question: What about the “plasma protein binding, human plasma” value (Human Plasma) of the same compound?
Answer: Its value is “✓ FT1518, FT1518-Esylate and FT1518-Oxalate showed moderate plasma protein binding in both mouse and human plasma”.

Question: And the IC50 [4]?
Answer: Its IC50 is over 10 µM.

Question: What about the “Bioavailability (% F)” value ([5]; PO dose (50 mg/kg) vs IV 10 mg/kg) of the same compound?
Answer: The value was 62 % F.

Question: And the AUC(0-inf) [5, 9]?
Answer: The AUC(0-inf) was 23700 ± 9250 ng·h/mL.

Question: What about the half-life [5, 9] of the same compound?
Answer: The half-life was 3.4 ± 1.2 h.

Question: And the Cmax ([5]; male, Balb/c, mouse, plasma, po, 50 mg/kg, PO dose (50 mg/kg), single dose, read-out: Cmax)?
Answer: Its Cmax is 8190 ± 891 ng/mL.

Question: And the Tmax ([5]; mouse, plasma, PO dose (50 mg/kg), single dose, read-out: Tmax)?
Answer: The Tmax was 0.3 ± 0.2 h.

Question: And the “plasma protein binding, mouse plasma” value (Mouse plasma)?
Answer: Its value is “✓ FT1518, FT1518-Esylate and FT1518-Oxalate showed moderate plasma protein binding in both mouse and human plasma”.

Question: And the half-life at 3 μM ([6]; 3 μM (n = 3), read-out: Invitro T1/2, RLM)?
Answer: The half-life at 3 μM was over 1 h.

Question: And the “stability in RLM” value [6]?
Answer: The value was “✓ FT1518, FT 1518-Esylate and FT1518-Oxalate was highly stable in PHLM and RLM”.

Question: And the IC50 [7]?
Answer: Its IC50 is over 10 µM.

Question: What about the Solubility ([8]; N-methyl pyrrolidone, organic solvent or mixture, thermodynamic from solid, N-methyl pyrrolidone, read-out: Solubility) of the same compound?
Answer: The Solubility was over 100 mg/mL.

Question: And the Solubility ([8]; Tetrahydrofuran)?
Answer: The Solubility was under 1 mg/mL.

Question: And the Solubility ([8]; acetone, organic solvent or mixture, thermodynamic from solid, Acetone, read-out: Solubility)?
Answer: The Solubility was under 1 mg/mL.

Question: And the Solubility ([8]; acetonitrile, organic solvent or mixture, thermodynamic from solid, Acetonitrile, read-out: Solubility)?
Answer: Its Solubility is over 100 mg/mL.

Question: And the Solubility ([8]; dimethyl sulphoxide, organic solvent or mixture, thermodynamic from solid, Dimethyl sulphoxide, read-out: Solubility)?
Answer: The Solubility was over 100 mg/mL.

Question: And the Solubility ([8]; ethyl acetate, organic solvent or mixture, thermodynamic from solid, Ethyl acetate, read-out: Solubility)?
Answer: Its Solubility is under 1 mg/mL.

Question: What about the Solubility ([8]; isopropyl alcohol (2-propanol), organic solvent or mixture, thermodynamic from solid, Isopropyl alcohol (2-propanol), read-out: Solubility) of the same compound?
Answer: The Solubility was 10 to 25 mg/mL (≈ 25.3 to 63.4 mM).

Question: And the Solubility ([8]; n-hexane, organic solvent or mixture, thermodynamic from solid, n-hexane, read-out: Solubility)?
Answer: The Solubility was under 1 mg/mL.

Question: What about the Solubility ([8]; toluene, organic solvent or mixture, thermodynamic from solid, Toluene, read-out: Solubility) of the same compound?
Answer: Its Solubility is under 1 mg/mL.
